# Where “and” joins values, the source holds several entries; their conditions need not be identical. Equal values may be shown once.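 Step 1: Grow cells in 96-well plates. Step 2: Expose to compound for 48 hours at 5 concentrations. Step 3: Interpolate endpoints linearly; if unreached, use highest concentration. GI50: concentration for 50% inhibition of growth. TGI marks complete inhibition of growth.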
# Experiments:
# Experiment in all cases: growth of human tumour cells (NCI), 48 h
# IGROV1 ovarian = system: IGROV1 ovarian
# EKVX NSCLC = system: EKVX NSCLC
# A498 renal = system: A498 renal
# SN12C renal = system: SN12C renal
# SNB-75 CNS = system: SNB-75 CNS
# NCI/ADR-RES ovarian = system: NCI/ADR-RES ovarian
# T-47D breast = system: T-47D breast
# SF-295 CNS = system: SF-295 CNS
# SK-MEL-28 melanoma = system: SK-MEL-28 melanoma
# MDA-N = system: MDA-N
Structure (SMILES),TGI (IGROV1 ovarian) [µM],TGI (EKVX NSCLC) [µM],TGI (A498 renal) [µM],TGI (SN12C renal) [µM],TGI (SNB-75 CNS) [µM],TGI (NCI/ADR-RES ovarian) [µM],TGI (T-47D breast) [µM],TGI (SF-295 CNS),TGI (SK-MEL-28 melanoma) [µM],TGI (MDA-N) [µM],GI50 (IGROV1 ovarian) [µM],GI50 (EKVX NSCLC) [µM],GI50 (A498 renal) [µM],GI50 (SN12C renal) [µM],GI50 (SNB-75 CNS) [µM],GI50 (NCI/ADR-RES ovarian) [µM],GI50 (T-47D breast) [µM],GI50 (SF-295 CNS) [µM],GI50 (SK-MEL-28 melanoma) [µM]
COc1ccc(NC(=S)NN=C(C)c2cccc(C(C)=NNC(=S)Nc3ccc(OC)cc3)n2)cc1,> 100,> 100,> 100,> 100,> 100,> 100,> 100,> 100 µM,> 100,–,–,–,–,–,–,–,–,–,–
COc1c2cc(C(C)(C)C)cc1CSCc1cc(C(C)(C)C)cc(c1OC)CCCCC2,> 50,–,> 50,> 50,> 50,> 50,> 50,> 50 µM,> 50,> 50,–,–,–,–,–,–,–,–,–
Cc1ccc(-c2cc(-c3ccco3)nc(N)n2)o1,> 100,> 100,–,> 100,> 100,–,–,> 100 µM,> 100,–,–,–,–,–,–,–,–,–,–
Oc1c(Cl)c2nccnc2c2ccccc12,> 100,> 100,> 100,> 100,> 100,–,–,> 100 µM,> 100,–,–,–,–,–,–,–,–,–,–
O=c1[nH]cnc2c1nnn2CCCn1nnc2c(=O)[nH]cnc21,> 100,> 100,> 100,> 100,–,–,–,> 100 µM,> 100,–,–,–,–,–,–,–,–,–,–
COc1c2nc(CCl)n(C)c(=O)c2c(OC)c2c(=O)n(C)c(CCl)nc12,4.56,11.8,5.94,3.56,3.8,6.88,–,5.16 µM,3.94,3.31,–,–,–,–,–,–,–,–,–
CCOC(=O)c1ccc(NC2Oc3cc4c(cc3C(c3cc(OC)c(OC)c(OC)c3)C2C)OCO4)cc1 (stereo not drawn),> 51,> 100,> 100,> 71.5,0.704,8.27,> 100,2.9 µM,> 100,–,–,–,–,–,–,–,–,–,–
O=C(NCc1cn(Cc2cccc(Oc3ccccc3)c2)nn1)c1cccnc1Nc1ccccc1,> 100,> 100,8.19,51.2,9.96,> 100,63.2,> 100 µM,> 100,–,5.86,5.18,1.88,4.3,1.94,2.47,5.4,3.69,4.93
CN(C)[C@@H]1C(=O)C(C(N)=O)=C(O)[C@@]2(O)C(=O)C3=C(O)c4c(O)cccc4C[C@H]3C[C@@H]12,4.8,–,4.56,–,2.98,–,–,3.22 µM,3.19,–,–,–,–,–,–,–,–,–,–
COC(=O)/C(=C/c1ccc(OC)cc1)C(C(=O)O)=C(C)C,> 100,> 100,> 100,> 100,–,–,–,> 100 µM,> 100,–,–,–,–,–,–,–,–,–,–
c1cnc2c(c1)-n1cccc1C1(CCOCC1)NN2,> 100,> 100,> 100,> 100,> 100,–,–,> 100 µM,> 100,–,–,–,–,–,–,–,–,–,–
O=c1c2cc([N+](=O)[O-])ccc2n2n1Cc1ccccc1CC2,> 100,52.5,> 100,> 100,–,> 100,–,> 100 µM,> 100,> 100,–,–,–,–,–,–,–,–,–
C=C1CC2CC[C@@]34C[C@@H]5O[C@@H]6C(O[C@H]7CC[C@H](CC(=O)OC8[C@@H](C)C9OC%10C[C@]%11(C[C@@H]%12O[C@@]%13(C[C@@H](C)[C@@H]%12O%11)C[C@H](C)[C@@H]%11OC%12CC(C(O)CO)OC%12C[C@@H]%11O%13)OC%10CC9O[C@H]8C[C@H]8O[C@@H](CC[C@@H]1O2)C[C@@H](C)C8=C)O[C@@H]7[C@@H]6O3)C5O4 (stereo partly drawn),> 1.48,> 1.48,0.0167,> 1.48,0.00367,0.0304,–,0.00266 µM and 0.000528 µM,–,–,< 0.000148,< 0.000148,< 0.000148,< 0.000148,–,–,–,< 0.000148,–
O=C(NCCNCCO)N/N=C/c1cccc([N+](=O)[O-])c1,> 100,–,> 100,> 100,> 100,–,–,> 100 µM,> 100,–,–,–,–,–,–,–,–,–,–
C=CCN1C(=O)CS/C1=N\NC(=O)c1c(C)nc2sccn12,> 100,> 100,–,> 100,–,–,–,> 100 µM,> 100,–,–,–,–,–,–,–,–,–,–
[N-]=N[N+]#I1OC(C(F)(F)F)(C(F)(F)F)c2ccccc21,32.7,34,31.8,30,32.5,45.4,27.7,31.2 µM,28.9,–,–,–,–,–,–,–,–,–,–
C=C/C(C)=C/[C@H](C)C(=O)C[C@H](O)CC1CC(=O)NC(=O)C1,> 86.7,> 100,> 100,> 100,> 100,> 100,–,> 100 µM,> 91.8,–,–,–,–,–,–,–,–,–,–
CCCCCCCCCCCCNC(=O)NCC(OCC)OCC,> 10,> 10,> 10,> 10,> 10,–,> 10,> 10 µM,> 10,> 10,–,–,–,–,–,–,–,–,–

Structure (SMILES),TGI (IGROV1 ovarian) [µM],TGI (EKVX NSCLC) [µM],TGI (A498 renal) [µM],TGI (SN12C renal) [µM],TGI (SNB-75 CNS) [µM],TGI (NCI/ADR-RES ovarian) [µM],TGI (T-47D breast) [µM],TGI (SF-295 CNS),TGI (SK-MEL-28 melanoma) [µM],TGI (MDA-N) [µM],GI50 (IGROV1 ovarian) [µM],GI50 (EKVX NSCLC) [µM],GI50 (A498 renal) [µM],GI50 (SN12C renal) [µM],GI50 (SNB-75 CNS) [µM],GI50 (NCI/ADR-RES ovarian) [µM],GI50 (T-47D breast) [µM],GI50 (SF-295 CNS) [µM],GI50 (SK-MEL-28 melanoma) [µM]
O=[N+]([O-])/C(C(Cl)=C(Cl)Cl)=C1\Nc2ccccc2O1,> 100,> 100,> 100,> 100,64.8,–,> 100,> 100 µM,> 100,> 100,–,–,–,–,–,–,–,–,–
COc1ccc(-n2sc3ncc(-c4ccccc4)cc3c2=O)cc1,78.8,> 100,> 100,80.2,> 100,> 100,> 100,> 100 µM,> 100,–,–,–,–,–,–,–,–,–,–
O=C(CCN1CCCCC1CCO)Nc1ccc2c(c1)C(=O)c1ccc(NC(=O)CCN3CCCCC3CCO)cc1C2=O (stereo not drawn),18.9,27,8.45,16,9.83,–,–,33.9 µM,23.5,–,–,–,–,–,–,–,–,–,–
Cc1ncc([N+](=O)[O-])n1CCN(C)CCCCn1ccnc1[N+](=O)[O-],–,> 100,> 100,> 100,> 100,–,> 100,> 100 µM,> 100,> 100,–,–,–,–,–,–,–,–,–
CC12CC3c4ccccc4CN1C3(c1ccccc1)OC2=O (stereo not drawn),> 100,> 100,> 100,> 100,> 100,> 100,> 100,> 100 µM,> 100,–,–,–,–,–,–,–,–,–,–
CC1=C/C(=C(\c2ccc(N(C)C)cc2)c2ccc([N+](C)(C)C)cc2)C=CC1=[N+](C)C,26.6,15.8,36.7,22.4,10.6,–,–,19.3 µM,31.4,–,–,–,–,–,–,–,–,–,–
COc1cc2c(cc1O)[C@H](C)C(c1ccc(Cl)cc1)O2 (stereo partly drawn),> 100,92.3,> 100,–,43.3,–,–,82.6 µM,> 100,–,–,–,–,–,–,–,–,–,–
COc1ccc(C[C@@H]2CN(C(=O)c3ccccc3)[C@H](Cc3ccc(O)cc3)CN2C(=O)c2ccccc2)cc1Br,> 100,> 100,> 100,> 100,> 100,> 100,> 100,> 100 µM,> 100,–,–,–,–,–,–,–,–,–,–
N#CI1OC(=O)c2ccccc21,> 100,> 100,> 100,> 100,> 100,> 100,> 100,> 100 µM,> 100,–,–,–,–,–,–,–,–,–,–
On1c(-c2ccccc2)c(-c2c(-c3ccccc3)n(O)c3ccccc23)c2ccccc21,–,–,–,> 100,94,–,–,61.9 µM,> 100,–,–,–,–,–,–,–,–,–,–
c1ccc2[nH]c(-c3nc4ccccc4o3)nc2c1,> 100,> 100,> 100,> 100,> 100,–,–,> 100 µM,> 100,–,–,–,–,–,–,–,–,–,–
CS(=O)(=O)NNS(=O)(=O)c1ccc(Br)cc1,> 100,> 100,> 100,–,> 100,–,–,–,> 100,–,–,–,–,–,–,–,–,–,–
CCOC(=O)C1NCCc2c1[nH]c1ccccc21 (stereo not drawn),> 10,> 10,–,> 10,> 10,–,> 10,> 10 µM,> 10,> 10,–,–,–,–,–,–,–,–,–
N#CC(c1ccc(O)cc1)N1CCN(C(C#N)c2ccc(O)cc2)CC1 (stereo not drawn),> 100,> 76.1,> 100,> 100,48.1,> 100,> 82.9,> 100 µM,> 100,–,–,–,–,–,–,–,–,–,–
COC(=O)c1ccc(CN2CCc3c([nH]c4ccccc34)C2CO)o1 (stereo not drawn),> 10,> 10,–,> 10,> 10,–,> 10,> 10 µM,> 10,> 10,–,–,–,–,–,–,–,–,–
COc1c(C2(c3ccc(F)cc3)SCCCS2)c(=O)c1=O,–,> 100,–,> 100,> 100,> 100,–,> 100 µM,> 100,> 100,–,–,–,–,–,–,–,–,–
Cc1c(C)c(C)c(-n2c(=O)n(C)c(=O)n2C(C)(C)C)c(C)c1C,–,–,> 100,> 100,> 100,–,> 100,> 100 µM,> 100,> 100,–,–,–,–,–,–,–,–,–
Cc1cc(Br)c(N2C3=C(CC4=C2CCCC4=O)C(=O)CCC3)c(Br)c1,> 100,> 100,> 100,> 100,> 100,> 100,–,–,> 100,–,–,–,–,–,–,–,–,–,–
